Measured values reported in patent US9593140B2, “Antibacterial tylosin derivatives and methods for their preparation” (Bayer Intellectual Property GmbH, priority 2011, dated 2017).

Tested on: Mannhemia hemolytica KB345
Experiment: Paper disc assay, M. hemolytica KB345 (Tilmicosin-sensitivity strain)
Assay type: cell-based
Settings: for zone of inhibition at 1 mg/disc / zone of inhibition at 3 mg/disc / zone of inhibition at 10 mg/disc / zone of inhibition at 30 mg/disc / zone of inhibition at 100 mg/disc: 24 h, Table 2; for zone of inhibition at 1 mg/disc: 1 mg/6 mm disk; for Inhibition zone (mm): Table 4
Protocol: (1) Antibacterial Activities Against Mannheimia and Pasteurella were Determined by the Following Steps:
1) M. hemolytica KB345 (Tilmicosin-sensitivity strain) and M. hemolytica KB346 (Tilmicosin-low sensitivity strain) were provided. KB 345 strain stored at −80° C. was seeded to BHIB agar medium (10 mL) by using Microbank beads (Pro-Lab) and platinum nail. After statically incubating the KB 345 strain for 24 hours at 37° C., it was seeded to maintaining slant BHIB agar medium (7 mL) by using platinum loop, further statically incubated for 24 hours at 37° C. to obtain slant. One platinum loop of KB 345 strain stored at the slant was inoculated into a large test tube charged with BHIB liquid medium (10 mL) and then incubated for 24 hours at 37° C. with shaking.
2) A paper disc (ADVANTEC, Φ:6 mm) was impregnated with a solution of test compound and dried under reduced pressure.
3) To a melted BHIB agar medium was inoculated 1% of the broth obtained from step 1) above to prepare a test plate. After the medium set, the paper disc prepared in step 2) above was put on the plate and it was incubated at 37° C.
4) After one day, the inhibition zone diameter and clarity (A to E) were determined.

Row | Structure (SMILES) | zone of inhibition at 1 mg/disc [mm] | zone of inhibition at 3 mg/disc (3 mg/6 mm disk) [mm] | zone of inhibition at 10 mg/disc (10 mg/6 mm disk) [mm] | zone of inhibition at 30 mg/disc (30 mg/6 mm disk) [mm] | zone of inhibition at 100 mg/disc (100 mg/6 mm disk) [mm] | Inhibition zone (mm) (3 mg/6 mm disk) | Inhibition zone (mm) (10 mg/6 mm disk) | Inhibition zone (mm) (30 mg/6 mm disk) | Inhibition zone (mm) (100 mg/6 mm disk)
1 | CC[C@H]1OC(=O)C[C@@H](O)[C@H](C)[C@@H](O[C@@H]2OC(C)[C@@H](O)C(N(C)C)C2O)[C@@H](CCn2cc(-c3cc(C)c(C)cc3C)nn2)C[C@@H](C)C(=O)/C=C/C(C)=C/[C@@H]1CO[C@@H]1OC(C)[C@@H](O)C(OC)C1OC (stereo partly drawn) [YT25, 20-(4-(2,4,5-trimethylphenyl)-1H-1,2,3-triazol-1-yl)-20-deoxodesmycosin] | 8 | 12 | 14 | 17 | 18.5 |  |  |  | 
2 | CC[C@H]1OC(=O)C[C@@H](O)[C@H](C)[C@@H](O[C@@H]2OC(C)[C@@H](O)C(N(C)C)C2O)[C@@H](CCn2cc(CO)nn2)C[C@@H](C)C(=O)/C=C/C(C)=C/[C@@H]1CO[C@@H]1OC(C)[C@@H](O)C(OC)C1OC (stereo partly drawn) [YT37, 20-(4-(methanol)-1H-1,2,3-triazol-1-yl)-20-deoxodesmycosin] |  |  |  | 9 | 12.5 |  |  |  | 
3 | CCCCCOc1ccc(-c2cn(CC[C@H]3C[C@@H](C)C(=O)/C=C/C(C)=C/[C@H](CO[C@@H]4OC(C)[C@@H](O)C(OC)C4OC)[C@@H](CC)OC(=O)C[C@@H](O)[C@H](C)[C@H]3O[C@@H]3OC(C)[C@@H](O)C(N(C)C)C3O)nn2)cc1 (stereo partly drawn) [YT27, 20-(4-(4-pentyloxyphenyl)-1H-1,2,3-triazol-1-yl)-20-deoxodesmycosin] |  | 9 | 11 | 13 | 16 |  |  |  | 
4 | CC[C@H]1OC(=O)C[C@@H](O)[C@H](C)[C@@H](O[C@@H]2OC(C)[C@@H](O)C(N(C)C)C2O)[C@@H](CCn2cc(-c3cnc4ccccc4c3)nn2)C[C@@H](C)C(=O)/C=C/C(C)=C/[C@@H]1CO[C@@H]1OC(C)[C@@H](O)C(OC)C1OC (stereo partly drawn) [YT35, 20-(4-(3-quinoline)-1H-1,2,3-triazol-1-yl)-20-deoxodesmycosin] |  | 14 | 17 | 19 | 21 |  |  |  | 
5 | CCOC(=O)c1cn(CC[C@H]2C[C@@H](C)C(=O)/C=C/C(C)=C/[C@H](CO[C@@H]3OC(C)[C@@H](O)C(OC)C3OC)[C@@H](CC)OC(=O)C[C@@H](O)[C@H](C)[C@H]2O[C@@H]2OC(C)[C@@H](O)C(N(C)C)C2O)nn1 (stereo partly drawn) [YT22, 20-(4-ethoxycarbonyl-1H-1,2,3-triazol-1-yl)-20-deoxodesmycosin] | 7.5 | 11.5 | 14.5 | 18 | 21 |  |  |  | 
6 | CC[C@H]1OC(=O)C[C@@H](O)[C@H](C)[C@@H](O[C@@H]2OC(C)[C@@H](O)C(N(C)C)C2O)[C@@H](CCn2cc(CC(C)C)nn2)C[C@@H](C)C(=O)/C=C/C(C)=C/[C@@H]1CO[C@@H]1OC(C)[C@@H](O)C(OC)C1OC (stereo partly drawn) [YT33, 20-(4-(2-methyl-propyl)-1H-1,2,3-triazol-1-yl)-20-deoxodesmycosin] |  | 13 | 16 | 17 | 20 |  |  |  | 
7 | CCCCc1cn(CC[C@H]2C[C@@H](C)C(=O)/C=C/C(C)=C/[C@H](CO[C@@H]3OC(C)[C@@H](O)C(OC)C3OC)[C@@H](CC)OC(=O)C[C@@H](O)[C@H](C)[C@H]2O[C@@H]2OC(C)[C@@H](O)C(N(C)C)C2O)nn1 (stereo partly drawn) [YT20, 20-(4-butyl-1H-1,2,3-triazol-1-yl)-20-deoxodesmycosin] | 9 | 11.5 | 16 | 17.5 | 20 |  |  |  | 
8 | CC[C@H]1OC(=O)C[C@@H](O)[C@H](C)[C@@H](O[C@@H]2OC(C)[C@@H](O)C(N(C)C)C2O)[C@@H](CCn2cc(-c3ccc(Oc4ccccc4)cc3)nn2)C[C@@H](C)C(=O)/C=C/C(C)=C/[C@@H]1CO[C@@H]1OC(C)[C@@H](O)C(OC)C1OC (stereo partly drawn) [YT24, 20-(4-(4-phenoxyphenyl)-1H-1,2,3-triazol-1-yl)-20-deoxodesmycosin] | 8.5 | 12 | 14.5 | 17 | 18 |  |  |  | 
9 | CC[C@H]1OC(=O)C[C@@H](O)[C@H](C)[C@@H](O[C@@H]2OC(C)[C@@H](O)C(N(C)C)C2O)[C@@H](CCn2cc(C(C)(C)O)nn2)C[C@@H](C)C(=O)/C=C/C(C)=C/[C@@H]1CO[C@@H]1OC(C)[C@@H](O)C(OC)C1OC (stereo partly drawn) [YT32, 20-(4-(1-methyl-1-hydroxylethyl)-1H-1,2,3-triazol-1-yl)-20-deoxodesmycosin] |  |  | 9 | 14 | 16 |  |  |  | 
10 | CC[C@H]1OC(=O)C[C@@H](O)[C@H](C)[C@@H](O[C@@H]2OC(C)[C@@H](O)C(N(C)C)C2O)[C@@H](CCn2cc(Cn3nnc4ccccc43)nn2)C[C@@H](C)C(=O)/C=C/C(C)=C/[C@@H]1CO[C@@H]1OC(C)[C@@H](O)C(OC)C1OC (stereo partly drawn) [YT28, 20-(4-(1-methyl-1H-benzotriazole)-1H-1,2,3-triazol-1-yl)-20-deoxodesmycosin] |  | 11 | 13 | 16 | 19 |  |  |  | 
11 | CC[C@H]1OC(=O)C[C@@H](O)[C@H](C)[C@@H](O[C@@H]2OC(C)[C@@H](O)C(N(C)C)C2O)[C@@H](CCn2cc(-c3ccc(C(C)(C)C)cc3)nn2)C[C@@H](C)C(=O)/C=C/C(C)=C/[C@@H]1CO[C@@H]1OC(C)[C@@H](O)C(OC)C1OC (stereo partly drawn) [YT26, 20-(4-(4-t-butylphenyl)-1H-1,2,3-triazol-1-yl)-20-deoxodesmycosin] |  | 9 | 11.5 | 14 | 16 |  |  |  | 
12 | CC[C@H]1OC(=O)C[C@@H](O)[C@H](C)[C@@H](O[C@@H]2OC(C)[C@@H](O)C(N(C)C)C2O)[C@@H](CCn2cc(CCCCO)nn2)C[C@@H](C)C(=O)/C=C/C(C)=C/[C@@H]1CO[C@@H]1OC(C)[C@@H](O)C(OC)C1OC (stereo partly drawn) [YT36, 20-(4-(4-butanol)-1H-1,2,3-triazol-1-yl)-20-deoxodesmycosin] |  |  |  |  | 9 |  |  |  | 
13 | CC[C@H]1OC(=O)C[C@@H](O)[C@H](C)[C@@H](O[C@@H]2O[C@H](C)[C@@H](O[C@H]3C[C@@](C)(O)[C@@H](O)[C@H](C)O3)[C@H](N(C)C)[C@H]2O)[C@@H](CC=O)C[C@@H](C)C(=O)/C=C/C(C)=C/[C@@H]1CO[C@@H]1O[C@H](C)[C@@H](O)[C@@H](OC)[C@H]1OC [Tylosin] |  |  |  | 10.5 | 11 |  |  |  | 
14 | CC[C@H]1OC(=O)C[C@@H](O)[C@H](C)[C@@H](O[C@@H]2OC(C)[C@@H](O)C(N(C)C)C2O)[C@@H](CCn2cc(-c3ccc(-c4ccccc4)cc3)nn2)C[C@@H](C)C(=O)/C=C/C(C)=C/[C@@H]1CO[C@@H]1OC(C)[C@@H](O)C(OC)C1OC (stereo partly drawn) [YT21] | 11.5 | 13.5 | 15.5 | 18 | 19 |  |  |  | 
15 | CC[C@H]1OC(=O)C[C@@H](O)[C@H](C)[C@@H](O[C@@H]2OC(C)[C@@H](O)C(N(C)C)C2O)[C@@H](CCn2cc(-c3ccc(N)cc3)nn2)C[C@@H](C)C(=O)/C=C/C(C)=C/[C@@H]1CO[C@@H]1OC(C)[C@@H](O)C(OC)C1OC (stereo partly drawn) [YT18] |  | 11 | 14.5 | 17 | 19.5 |  |  |  | 
16 | CC[C@H]1OC(=O)C[C@@H](O)[C@H](C)[C@@H](O[C@@H]2OC(C)[C@@H](O)C(N(C)C)C2O)[C@@H](CCn2cc(-c3cccc(N)c3)nn2)C[C@@H](C)C(=O)/C=C/C(C)=C/[C@@H]1CO[C@@H]1OC(C)[C@@H](O)C(OC)C1OC (stereo partly drawn) [YT17] |  | 12 | 14 | 18 | 19.5 |  |  |  | 
17 | CCCNC[C@]1(O)[C@H](C)O[C@@H](O[C@H]2[C@H](C)[C@@H](O[C@@H]3O[C@H](C)C[C@H](N(C)C)[C@H]3O)[C@](C)(O)C[C@@H](C)CN[C@H](C)[C@@H](O)[C@](C)(O)[C@@H](CC)OC(=O)[C@@H]2C)C[C@@]1(C)OC [Tulathromycin, reference compound] | 12.5 | 16 | 18 |  |  |  |  |  | 
18 | CC[C@H]1OC(=O)C[C@@H](O)[C@H](C)[C@@H](O[C@@H]2OC(C)[C@@H](O)C(N(C)C)C2O)[C@@H](CCn2cc(CNC)nn2)C[C@@H](C)C(=O)/C=C/C(C)=C/[C@@H]1CO[C@@H]1OC(C)[C@@H](O)C(OC)C1OC (stereo partly drawn) [YT30, 20-(4-(N-methyl-methylamine)-1H-1,2,3-triazol-1-yl)-20-deoxodesmycosin] |  |  |  |  | 10 |  |  |  | 
19 | CC[C@H]1OC(=O)C[C@@H](O)[C@H](C)[C@@H](O[C@@H]2O[C@H](C)[C@@H](O)[C@H](N(C)C)[C@H]2O)[C@@H](CCn2cc(-c3ccccc3)nn2)C[C@@H](C)C(=O)/C=C/C(C)=C/[C@@H]1CN=[N+]=[N-] [YT114, 20-(4-phenyl-1H-1,2,3-triazol-1-yl)-20-deoxo-23-azido-23-deoxy-5-O-mycaminosyltylonolide] |  |  |  |  |  | 11.5 | 17.5 | 21.0 | 21.0
